From US20140271926A1, “METHODS OF USE OF GLUTAMINE SYNTHETASE INHIBITORS” (CALIFORNIA INSTITUTE OF TECHNOLOGY, priority 2013, published 2014)
Residues, ends and D or L forms follow the SMILES beside them. *: point of attachment. Cbz = O=C(OCc1ccccc1)*

Assays:
[1] = test system: glutamine synthetase (GS); experiment: Western blot of endogenous GS level in MM.1S cells; type: cell-based, human; settings: for steady-state level of GS: MM.1S cells, 2 mM glutamine, FIG. 5
Procedure: The consequences of IMiD-enhanced ubiquitylation of GS on endogenous GS levels and stability in MM.1S cells were evaluated. […] The IMiD-triggered decline in GS protein was not due to a reduction in the mRNA level of GS (FIGS. 5 and 6). If IMiDs were added immediately after changing the growth medium, the suppression of GS was more profound, with a maximal effect seen at 0.1 μM pomalidomide (4-amino-thalidomide) (FIG. 7). […] To determine if IMiDs were affecting the stability of GS, cycloheximide chase experiments were performed. As known in the art, GS is an unstable protein (FIG. 9). […] The lenalidomide-induced downregulation of GS was blocked by the proteasome inhibitor MG132 (FIG. 11). Additionally, the lenalidomide-induced downregulation of GS was blunted upon depletion of CRBN by shRNA (FIG. 12).
Western blot analysis. […] After washing twice with ice-cold PBS, the cells were lysed in RIPA buffer (50 mM Tris-HCl, 150 mM NaCl, 1% Triton X-100, 1% Sodium deoxycholate, 0.1% SDS, [pH 7.5]) supplemented with complete protease inhibitor (Roche). Whole-cell protein extracts were prepared and quantified by the Bradford method (Bio-Rad, Hercules, Calif.). Equal amounts of protein (20-80 μg/lane) were electrophoretically separated on SDS-PAGE and transferred to a PVDF membrane. The membranes were blotted with indicated antibodies. Anti-rabbit or anti-mouse antibodies conjugated to horseradish peroxidase (Vector Labs) were used as secondary antibodies, and the signal was detected using a Super Signal West Pico Substrate kit (Fisher Scientific).

[2] = clinical; cited from earlier work
endogenous GS = experiment: TUBE2 pull-down of ubiquitin conjugates, HEK293T cells; type: cell-based, human; settings: 3 hours, FIG. 4; for GS ubiquitin conjugates: lenalidomide 30 μM or MG132 10 μM
Procedure: TUBE (Tandem Ubiquitin Binding Entities) Pull-down. […] The cells were lysed in immunoprecipitation buffer (10 mM Tris [pH 7.5], 150 mM NaCl, 1% Triton X-100) containing a protease inhibitor cocktail, MG132 and 10 mM N-ethylmaleimide (NEM, Sigma). Whole-cell protein extracts were incubated with 20 μl of TUBE2 agarose beads (Boston Biochem) for 2-4 hours with rotation at 4° C. Beads were washed 3-5 times with lysis buffer, and bound proteins were eluted in SDS sample buffer and subjected to Western blot analysis.

FlagGS = experiment: In vivo ubiquitylation assay of FlagGS in HEK293T cells; type: cell-based, human; settings: MG132 10 μM 3 hours, FIG. 13A
Text: As mentioned above, GS is moderately unstable even in the absence of IMiDs. Specifically, seven lysine residues of GS are modified with ubiquitin in proteasome-inhibited cells, and modification of five of these sites is reduced upon inhibition of CRL activity with the NEDD8 conjugation inhibitor MLN4924. (Kim et al., 2011, Mol Cell., 44:325 and Emanuele et al., 2011, Cell, 147:459, the entire contents of both of which are herein incorporated by reference.) As such, the idea that the constitutive ubiquitylation and degradation of GS may be dependent on CRL4^CRBN was tested. In co-transfection assays, ^HAubiquitin was incorporated into ^FlagGS as determined by immunoprecipitation of ^FlagGS followed by immunoblotting with anti-HA (FIG. 13A). Additionally, ubiquitin-modified ^FlagGS accumulated in cells in which the proteasome was inhibited with the proteasome inhibitor MG132, but was almost entirely absent upon depletion of endogenous CRBN (depletion of CRBN was confirmed by immunoblot; FIG. 13B). […]
In vivo ubiquitylation assay. […] IP washing steps were performed using IP lysis buffer supplemented with 0.5 M NaCl Immunoprecipitated proteins were resolved by SDS/PAGE and analyzed by immunoblotting.

MM.1S cells = experiment: Immunoblot of apoptosis biomarkers (cleaved caspase-3, PARP) in MM.1S cells; type: cell-based, human; settings: low concentrations of pomalidomide; 0.5 mM glutamine 72 hours; FIG. 26
Procedure: Since the physiological concentration of glutamine in human plasma is 0.5 mM (not the 2 mM that is typically used in cell cultures), the impact of GS depletion on cells grown in 0.5 mM glutamine was evaluated. Cells transduced with GS shRNA-3 in 2 mM glutamine for 7 days and then the cells were shifted to 0.5 mM glutamine.
If IMiDs modulate the level of multiple proteins that are critical for proliferation of myeloma cells, then restoring any one protein would not be expected to allow proliferation in the presence of IMiDs. By contrast, it was reasoned that if degradation of GS contributes to the anti-myeloma effect of IMiDs, that reduction of GS levels by shRNA knockdown would enhance the effect of IMiDs at sub-saturating concentrations, resulting in enhanced efficacy. […]
Western blot analysis. […] Whole-cell protein extracts were prepared and quantified by the Bradford method (Bio-Rad, Hercules, Calif.). […] Anti-rabbit or anti-mouse antibodies conjugated to horseradish peroxidase (Vector Labs) were used as secondary antibodies, and the signal was detected using a Super Signal West Pico Substrate kit (Fisher Scientific).

GS = settings: five of seven ubiquitin-modified lysine sites; proteasome-inhibited cells; cited from earlier work

Nc1cccc2c1CN(C1CCC(=O)NC1=O)C2=O (stereo not shown) [lenalidomide]
steady-state level of GS ([1]; 24 hours): marked, dose-dependent reduction | time to substantial reduction of GS ([1]; MM.1S, 100 μM lenalidomide, FIG. 8): ≤ 4 h | lenalidomide-induced downregulation of GS upon depletion of CRBN by shRNA ([1]; MM.1S, 24 hours, FIG. 12): blunted | Cmax [2]: ~1500 nM | total cellular pool of ubiquitin conjugates (endogenous GS; 30 μM): essentially no effect | GS ubiquitin conjugates (endogenous GS): increase

CC(C)C[C@@H](C=O)NC(=O)[C@H](CC(C)C)NC(=O)[C@H](CC(C)C)NC(=O)OCc1ccccc1 [MG132] (Cbz-Leu-Leu-Leu-aldehyde)
lenalidomide-induced downregulation of GS in presence of proteasome inhibitor ([1]; MM.1S, 0.5 μM MG132, 100 μM lenalidomide, FIG. 11): blocked | GS ubiquitin conjugates (endogenous GS): increase | ubiquitin-modified FlagGS (FlagGS): accumulated

Nc1cccc2c1C(=O)N(C1CCC(=O)NC1=O)C2=O (stereo not shown) [pomalidomide, 4-amino-thalidomide]
steady-state level of GS ([1]; 24 hours): marked, dose-dependent reduction | concentration giving maximal suppression of GS ([1]; MM.1S, IMiDs added immediately after changing the growth medium, FIG. 7): 0.1 µM | Cmax [2]: ~275 nM | PARP cleavage in GS-depleted cells (MM.1S cells): further accentuated | PARP cleavage in non-depleted cells (MM.1S cells): no effect

Nc1ccc2c(c1)C(=O)N(C1CCC(=O)NC1=O)C2=O (stereo not shown) [5-amino-thalidomide]
effect on GS protein levels ([1]; MM.1S, FIG. 7): no effect

NS(=O)(=O)OC[C@@H]1C[C@@H](n2ccc3c(N[C@H]4CCc5ccccc54)ncnc32)C[C@@H]1O [MLN4924]
ubiquitin modification of GS lysine residues (GS): reduced
